7 compounds from patent US6689799B1, “1,4-dihydropyridine-5-carboxylic acid ester derivatives and method for the preparation thereof” (Rephartox, priority 1999, dated 2004) can be followed below.

In brackets after ≈: the same amount, converted by molar mass. Read-outs that look alike come from different tables or passages of the source.

The subject of series [1] is Respiratory syncytial virus. The experiment in a line: Respiratory syncytial virus antiviral activity. Type of series: cell-based. The following applies: human respiratory syncytial virus, read-out: IC50: concentration at which the virus production is inhibited by 50%. How it is done: (§1) The compounds were tested for antiviral activity by the Rega Institute (Leuven, Belgium).
(§2) The standard experiments for determining the biological activity of the compounds according to the invention were performed with CMV (Cytomegalovirus), varicella zoster virus, and RSV (respiratory syncytial virus).

The test system of another series is HeLa-cells. As to the kind of experiment: Minimal toxic concentration, cell morphology of HeLa-cells. It counts as cell-based.
A further series relates to TK − VZV 07/1 strain. As to the kind of experiment: microbe, parasite or virus in culture. It counts as cell-based, Varicella zoster virus. The following applies: Human alphaherpesvirus 3, read-out: IC50: concentration at which the virus production is inhibited by 50%. How it is done: as §1, §2
For another series, the system named is TK − VZV YS/R strain. As to the kind of experiment: microbe, parasite or virus in culture. Type of series: cell-based, Varicella zoster virus. The note with it: Human alphaherpesvirus 3, read-out: IC50: concentration at which the virus production is inhibited by 50%. How it is done:
as §1, §2

Series [2] can be described thus: Cytotoxicity, reduction of cell growth (Table 2, VZV). Type of series: cell-based. The note with it: Table 2, varicella zoster virus.
For series [3], the system named is Cytomegalovirus AD-169 strain. The experiment in a line: Cytomegalovirus antiviral activity, AD-169 strain. The following applies: Human betaherpesvirus 5, AD169, read-out: IC50: concentration at which the virus production is inhibited by 50%. It counts as cell-based. Here is the method:
(§3) The compounds were tested for antiviral activity by the Rega Institute (Leuven, Belgium). The standard experiments for determining the biological activity of the compounds according to the invention were performed with CMV (Cytomegalovirus), varicella zoster virus, and RSV (respiratory syncytial virus). [table]

For series [4], the system named is Cytomegalovirus Davis strain. As to the kind of experiment: Cytomegalovirus antiviral activity, Davis strain. It counts as cell-based. The note with it: Human betaherpesvirus 5, read-out: IC50: concentration at which the virus production is inhibited by 50%. Here is the method:
as §3

Series [5] in a line: Cytotoxicity, reduction of cell growth (Table 1, CMV). It counts as cell-based. The note with it: Table 1, cytomegalovirus.
Where [6] appears, read: microscopically detectable change in normal cell morphology of HeLa-cells.

For `COC(=O)C1=C(C)NC(C)=C(C(=O)OCCCOc2cc(=O)oc3ccccc23)C1c1ccccc1` (centres unmarked) [Example 4, 3-[{3-(Coumarin-4-yloxy)-1-propoxy}carbonyl]-2,6-dimethyl-5-methoxycarbonyl-4-phenyl-1,4-dihydropyridine], the IC50 in series [1] was 0.16 µg/mL (≈ 0.327 µM). Moreover, the “MTC: Minimal toxic concentration” value with HeLa-cells (setting [6]) is 2.8 mg/mL.

For orientation: CC50 means the concentration giving 50% cytotoxicity. What is called melting point is the temperature, or range, at which the solid turns liquid. `CCOC(=O)C1=C(C)NC(COc2cc(=O)oc3ccccc23)=C(C(=O)OCC)C1c1cccc([N+](=O)[O-])c1` (centres unmarked) [Example 20, 2-(Coumarin-4-yloxymethyl)-3,5-diethoxycarbonyl-6-methyl-4-(3-nitrophenyl)-1,4-dihydropyridine] registered a melting point of 76 to 79 °C. Besides, in the series with TK − VZV 07/1 strain, the IC50 was determined as 0.07 µg/mL (≈ 0.131 µM). Further, the IC50 in the series with TK − VZV YS/R strain is 0.05 µg/mL (≈ 0.0935 µM). The CC50 in series [2] was 1.6 µg/mL (≈ 2.99 µM).

In the case of `Nc1nc2c(ncn2COC(CO)CO)c(=O)[nH]1` [DHPG, 9-[(1,3-dihydroxy-2-propoxy)methyl]guanine, reference compound], the IC50 in series [3] and in [4] was 1.8 µg/mL (≈ 7.05 µM) in each case. Moreover, the CC50 in series [5] was > 200 µg/mL.

With `CCOC(=O)C1=C(C)NC(COc2cc(=O)oc3ccccc23)=C(C(=O)OCC)C1c1ccccc1C(F)(F)F` (centres unmarked) [Example 24, 2-(Coumarin-4-yloxymethyl)-3,5-diethoxycarbonyl-6-methyl-4-(2-trifluoromethylphenyl)-1,4-dihydropyridine], the IC50 in series [3] is 2.4 µg/mL (≈ 4.3 µM); in series [4], 2.3 µg/mL (≈ 4.13 µM); with TK − VZV 07/1 strain, 2.5 µg/mL (≈ 4.48 µM); in the series on TK − VZV YS/R strain, 1.5 µg/mL (≈ 2.69 µM); in series [1], 0.8 µg/mL (≈ 1.43 µM). Also, the CC50 in series [5] and in [2] was > 200 µg/mL in each case. In addition, the “MTC: Minimal toxic concentration” value in the series with HeLa-cells (setting [6]) was 4.0 mg/mL.

On to `COC(=O)C1=C(C)NC(C)=C(C(=O)OCCOc2cc(=O)oc3ccccc23)C1c1ccccc1` (centres unmarked) [Example 1, 2,6-Dimethyl-4-phenyl-5-methoxycarbonyl-3-[{2-(coumarin-4-yloxy)ethoxy}carbonyl]-1,4-dihydropyridine], for which the figures for the IC50 (in the series on TK − VZV 07/1 strain; with TK − VZV YS/R strain; in series [1]) were 1.5 µg/mL (≈ 3.15 µM), 1 µg/mL (≈ 2.1 µM) and 2.4 µg/mL (≈ 5.05 µM), respectively. In series [2], half-maximal cytotoxicity (CC50) was put at 4.5 µg/mL (≈ 9.46 µM). The “MTC: Minimal toxic concentration” value in the series on HeLa-cells (setting [6]) turned out to be 100 mg/mL.

For `COC(=O)C1=C(C)NC(C)=C(C(=O)OCC(C)(C)COc2cc(=O)oc3ccccc23)C1c1ccccc1` (centres unmarked) [Example 6, 3-[{3-(Coumarin-4-yloxy)-2,2-dimethyl-1-propoxy}carbonyl]-2,6-dimethyl-5-methoxycarbonyl-4-phenyl-1,4-dihydropyridine], the IC50 turned out to be 2 µg/mL (≈ 3.86 µM) with TK − VZV 07/1 strain and 1 µg/mL (≈ 1.93 µM) in the series with TK − VZV YS/R strain. Further, the CC50 in series [2] was determined as 8.5 µg/mL (≈ 16.4 µM).

Turning to “4-[{2-(7-Coumarinyloxy)ethoxy}phenyl)-3,5-dimethoxycarbonyl-2,6-dimethyl-1,4-dihydropyridine.ethylacetate [Example 30]”, the “MTC: Minimal toxic concentration” value in the series with HeLa-cells is 100 mg/mL.
